According to patent US20140275063A1, “NEW ENZYME INHIBITOR COMPOUNDS” (PROXIMAGEN LIMITED, priority 2011, published 2014):
Structures can show the parent of a compound that is named as a salt.

Molecular target: T1, human SSAO (Homo sapiens, UniProt Q16853)
T1 construct: made in house
T1 sequence (Q16853 29-763 limits assumed): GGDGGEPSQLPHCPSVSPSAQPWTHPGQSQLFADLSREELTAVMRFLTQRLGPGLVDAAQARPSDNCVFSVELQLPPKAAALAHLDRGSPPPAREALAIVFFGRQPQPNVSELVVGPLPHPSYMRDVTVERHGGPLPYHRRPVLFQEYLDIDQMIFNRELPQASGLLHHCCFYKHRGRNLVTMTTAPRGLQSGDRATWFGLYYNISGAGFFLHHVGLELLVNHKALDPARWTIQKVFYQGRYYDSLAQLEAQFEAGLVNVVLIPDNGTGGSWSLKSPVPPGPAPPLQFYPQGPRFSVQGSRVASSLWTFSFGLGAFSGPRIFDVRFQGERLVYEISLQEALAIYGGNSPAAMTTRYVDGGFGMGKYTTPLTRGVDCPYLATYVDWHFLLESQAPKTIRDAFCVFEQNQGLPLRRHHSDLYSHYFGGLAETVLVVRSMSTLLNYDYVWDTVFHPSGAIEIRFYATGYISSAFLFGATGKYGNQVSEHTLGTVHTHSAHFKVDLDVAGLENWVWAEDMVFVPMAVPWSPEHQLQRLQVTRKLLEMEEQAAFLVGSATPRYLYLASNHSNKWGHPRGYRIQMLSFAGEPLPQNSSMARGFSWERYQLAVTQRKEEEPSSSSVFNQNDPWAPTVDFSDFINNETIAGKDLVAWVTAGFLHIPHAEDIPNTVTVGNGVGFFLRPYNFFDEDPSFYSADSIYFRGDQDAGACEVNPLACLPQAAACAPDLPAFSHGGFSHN
Experiment: SSAO inhibitory activity (HRP-coupled hydrogen peroxide detection or 14C-benzaldehyde detection, benzylamine substrate)
Format: biochemical
Details: purified recombinantly expressed human SSAO, benzylamine as substrate, RT
Experimental: All primary assays were performed at RT. with purified recombinantly expressed human SSAO. Enzyme was prepared essentially as described in Öhman et al. (Protein Expression and Purification 46 (2006) 321-331). In addition, secondary- and selectivity assays were performed using SSAO prepared from various tissues or purified rat recombinant SSAO. The enzyme activity was assayed with benzylamine as substrate by measuring either benzaldehyde production, using ^14C-labeled substrate, or by utilizing the production of hydrogen peroxide in a horseradish peroxidase (HRP) coupled reaction. Briefly, test compounds were dissolved in dimethyl sulfoxide (DMSO) to a concentration of 10 mM. Dose-response measurements were assayed by either creating 1:10 serial dilutions in DMSO to produce a 7 point curve or by making 1:3 serial dilutions in DMSO to produce 11 point curves. The top concentrations were adjusted depending on the potency of the compounds and subsequent dilution in reaction buffer yielded a final DMSO concentration ≦2%.
In a horseradish peroxidase (HRP) coupled reaction, hydrogen peroxide oxidation of 10-acetyl-3,7-dihydroxyphenoxazine produced resorufin, which is a highly fluorescent compound (Zhout and Panchuk-Voloshina. Analytical Biochemistry 253 (1997) 169-174; Amplex® Red Hydrogen Peroxideperoxidase Assay kit, Invitrogen A22188). Enzyme and compounds in 50 mM sodium phosphate, pH 7.4 were set to pre-incubate in flat-bottomed microtiter plates for approximately 15 minutes before initiating the reaction by addition of a mixture of HRP, benzylamine and Amplex reagent. Benzylamine concentration was fixed at a concentration corresponding to the Michaelis constant, determined using standard procedures. Fluorescence intensity was then measured at several time points during 1-2 hours, exciting at 544 nm and reading the emission at 590 nm. For the human SSAO assay final concentrations of the reagents in the assay wells were: SSAO enzyme 1 μg/ml, benzylamine 100 μM, Amplex reagent 20 μM, HRP 0.1 U/mL and varying concentrations of test compound. The inhibition was measured as % decrease of the signal compared to a control without inhibitor (only diluted DMSO). The background signal from a sample containing no SSAO enzyme was subtracted from all data points. Data was fitted to a four parameter logistic model and IC50 values were calculated using the Graph Pad Prism 4 or XLfit 4 programs.
SSAO activity was assayed using 14C-labeled benzylamine and analysed by measuring radioactive benzaldehyde. In a white 96-well optiplate (Packard), 20 μL of diluted test compound was pre-incubated at RT. with 20 μL SSAO enzyme for approximately 15 minutes with continuous agitation. All dilutions were made with PBS. The reaction was initiated by adding 20 μL of the benzylamine substrate solution containing [7-14C] Benzylamine hydrochloride (CFA589, GE Healthcare). The plate was incubated for 1 hour as above after which the reaction was stopped by acidification (10 μL 1 M HCl). Then 90 μL Micro Scint-E solution (Perkin-Elmer) was added to each well and the plate was continuously mixed for 15 minutes. Phase separation occurred instantly and activity was read in a Topcount scintillation counter (Perkin-Elmer). In the final reaction well, the human recombinant SSAO concentration was 10 μg/ml. In order to optimize sensitivity, the substrate concentration was decreased as compared to the HRP coupled assay in order to get a higher fraction of radioactive product. In the human SSAO assay, benzylamine concentration was 40 μM (0.2 μCi/mL). Data was analysed as above.

SMILES	IC50 [nM]
NCCCNC(=O)N1CCN(CC2CN(c3nn(-c4ccc(Cl)cc4)c4cnccc34)CCO2)CC1 (centres unmarked) [Compound 38, N-(3-Aminopropyl)-4-({4-[1-(4-chlorophenyl)-1H-pyrazolo[3,4-c]pyridin-3-yl]morpholin-2-yl}methyl)piperazine-1-carboxamide tri hydrochloride]	100 to 500
CN1CCN(C(=O)CC2COCCN2c2nn(-c3ccc(Cl)cc3)c3cnccc23)CC1 (centres unmarked) [Compound 55, 2-{4-[1-(4-Chlorophenyl)-1H-pyrazolo[3,4-c]pyridin-3-yl]morpholin-3-yl}-1-(4-methylpiperazin-1-yl)ethan-1-one]	< 100
O=C(NCC1CCNCC1)C1CCN(c2nn(-c3ccc(Cl)cc3)c3cnccc23)CC1 [Compound 47, 1-[1-(4-Chlorophenyl)-1H-pyrazolo[3,4-c]pyridin-3-yl]-N-(piperidin-4-ylmethyl)piperidine-4-carboxamide dihydrochloride]	100 to 500
Cc1ccc(-n2nc(N3CCOC(CNC(=O)OC(C)C)C3)c3ccncc32)cc1 (centres unmarked) [Compound 30, Propan-2-yl N-({4-[1-(4-methylphenyl)-1H-pyrazolo[3,4-c]pyridin-3-yl]morpholin-2-yl}methyl)carbamate]	< 100
CN1CCC(NC(=O)N2CCC(c3cn(-c4ccc(Cl)cc4)c4cnccc34)CC2)CC1 [Compound 8, 4-[1-(4-Chlorophenyl)-1H-pyrrolo[2,3-c]pyridin-3-yl]-N-(1-methylpiperidin-4-yl)piperidine-1-carboxamide]	< 100
Clc1ccc(-n2nc(N3CCC(CN4CCOCC4)CC3)c3ccncc32)cc1 [Compound 48, 4-({1-[1-(4-Chlorophenyl)-1H-pyrazolo[3,4-c]pyridin-3-yl]piperidin-4-yl}methyl) morpholine dihydrochloride]	< 100
CN1CCC(CNC(=O)N2CCN(c3nn(-c4ccc(Cl)cc4)c4cnccc34)CC2)CC1 [Compound 51, 4-[1-(4-Chlorophenyl)-1H-pyrazolo[3,4-c]pyridin-3-yl]-N-[(1-methylpiperidin-4-yl)methyl]piperazine-1-carboxamide]	< 100
Clc1ccc(-n2nc(N3CCOCC3CN3CCOCC3)c3ccncc32)cc1 (centres unmarked) [Compound 41, 4-[1-(4-Chlorophenyl)-1H-pyrazolo[3,4-c]pyridin-3-yl]-3-(morpholin-4-ylmethyl)morpholine]	100 to 500
CN1CCC(CCNC(=O)N2CCC(c3cn(-c4ccc(Cl)cc4)c4cnccc34)CC2)CC1 [Compound 24, 4-[1-(4-Chlorophenyl)-1H-pyrrolo[2,3-c]pyridin-3-yl]-N-[2-(1-methylpiperidin-4-yl)ethyl] piperidine-1-carboxamide]	< 100
CN1CCN(CCNC(=O)N2CCC(c3cn(-c4ccc(Cl)cc4)c4cnccc34)CC2)CC1 [Compound 25, 4-[1-(4-Chlorophenyl)-1H-pyrrolo[2,3-c]pyridin-3-yl]-N-[2-(4-methylpiperazin-1-yl)ethyl] piperidine-1-carboxamide]	< 100
CC(C)N1CCC(NC(=O)N2CCC(c3cn(-c4ccc(Cl)cc4)c4cnccc34)CC2)CC1 [Compound 9, 4-[1-(4-Chlorophenyl)-1H-pyrrolo[2,3-c]pyridin-3-yl]-N-[1-(propan-2-yl)piperidin-4-yl] piperidine-1-carboxamide]	< 100
NC(=O)NCC1CN(c2nn(-c3ccc(Cl)cc3)c3cnccc23)CCO1 (centres unmarked) [Compound 59, ({4-[1-(4-Chlorophenyl)-1H-pyrazolo[3,4-c]pyridin-3-yl]morpholin-2-yl}methyl)urea]	< 100
CN1CCC(CN(C)C(=O)N2CCC(c3cn(-c4ccc(Cl)cc4)c4cnccc34)CC2)CC1 [Compound 13, 4-[1-(4-Chlorophenyl)-1H-pyrrolo[2,3-c]pyridin-3-yl]-N-methyl-N-[(1-methylpiperidin-4-yl)methyl] piperidine-1-carboxamide; formic acid]	< 100
O=C(N1CCC(c2cn(-c3ccc(Cl)cc3)c3cnccc23)CC1)N1CCN(C2CC2)CC1 [Compound 16, 1-({4-[1-(4-Chlorophenyl)-1H-pyrrolo[2,3-c]pyridin-3-yl]piperidin-1-yl}carbonyl)-4-cyclopropyl-piperazine]	< 100
CC(=O)N1CCC(NC(=O)N2CCC(c3cn(-c4ccc(Cl)cc4)c4cnccc34)CC2)CC1 [Compound 10, N-(1-Acetylpiperidin-4-yl)-4-[1-(4-chlorophenyl)-1H-pyrrolo [2,3-c]pyridin-3-yl]piperidine-1-carboxamide]	< 100
Clc1ccc(-n2nc(NCCN3CCOCC3)c3ccncc32)cc1 [Compound 44, 1-(4-Chlorophenyl)-N-[2-(morpholin-4-yl)ethyl]-1H-pyrazolo[3,4-c]pyridin-3-amine]	500 to 2500
O=C(NCC1CCNCC1)N1CCC(c2cn(-c3ccc(Cl)cc3)c3cnccc23)CC1 [Compound 6, 4-[1-(4-Chlorophenyl)-1H-pyrrolo[2,3-c]pyridin-3-yl]-N-(piperidin-4-ylmethyl)piperidine-1-carboxamide]	< 100
CN1CCN(C)C(CNC(=O)N2CCC(c3cn(-c4ccc(Cl)cc4)c4cnccc34)CC2)C1 (centres unmarked) [Compound 21, 4-[1-(4-Chlorophenyl)-1H-pyrrolo[2,3-c]pyridin-3-yl]-N-[(1,4-dimethyl-piperazin-2-yl)methyl] piperidine-1-carboxamide]	< 100
O=C(NCCCN1CCOCC1)N1CCC(c2cn(-c3ccc(Cl)cc3)c3cnccc23)CC1 [Compound 26, 4-(1-(4-Chlorophenyl)-1H-pyrrolo[2,3-c]pyridin-3-yl]-N-[3-(morpholin-4-yl)propyl] piperidine-1-carboxamide]	< 100
CN1CCC(CNC(=O)N2CCC(c3cn(-c4ccc(Cl)cc4)c4cnccc34)CC2)CC1 [Compound 11, 4-[1-(4-Chlorophenyl)-1H-pyrrolo[2,3-c]pyridin-3-yl]-N-[(1-methylpiperidin-4-yl)methyl] piperidine-1-carboxamide]	< 100
CC(C)N1CCC(CNC(=O)N2CCC(c3cn(-c4ccc(Cl)cc4)c4cnccc34)CC2)CC1 [Compound 27, 4-[1-(4-Chlorophenyl)-1H-pyrrolo[2,3-c]pyridin-3-yl]-N-{[1-(propan-2-yl)piperidin-4-yl]methyl}piperidine-1-carboxamide; formic acid]	< 100
CN1CCC(CNC(=O)CC2COCCN2c2nn(-c3ccc(Cl)cc3)c3cnccc23)CC1 (centres unmarked) [Compound 58, 2-{4-[1-(4-Chlorophenyl)-1H-pyrazolo[3,4-c]pyridin-3-yl]morpholin-3-yl}-N-[(1-methylpiperidin-4-yl)methyl] acetamide]	100 to 500
CC(=O)OC1CCN(c2nn(-c3ccc(C)cc3)c3cnccc23)CC1 [Compound 52, 1-[1-(4-Methylphenyl)-1H-pyrazolo[3,4-c]pyridin-3-yl]piperidin-4-yl acetate]	< 100
